According to patent publication US9920295B2, “Bioreactor for isolation of rare cells and methods of use” (The Trustees of the University of Pennsylvania, priority 2012, dated 2018):

How the values were obtained:
Type in all cases: cell-based, human
[1] = test system: CD34+-derived cells; assay: DNA microarray transcriptional profiling
Method: Total RNA was extracted from cells using trizol and isolated by RNeasy (Qiagen) according to manufacturer's protocol. Total RNA was amplified and converted to cDNA using WT-Ovation Pico kit (NuGen) and converted to ST-cDNA, fragmented and biotinfunctionalized using WT-Ovation Exon Mudule (NuGen). Hybridization cocktails were prepared at 45.4, 15.1 and 7.6 ng/μl ST-cDNA and mixed with Eukaryotic Hybridization Controls (GeneChip) at proportional concentrations. Each sample was interrogated by sequential hybridization, rinse and scan cycles on a single Human Gene 1.0 ST DNA microarray (Affymetrix), from low to high concentration, and followed by two rinse-scan cycles in which no sample was added. In each experiment the scanned intensities that were obtained from all samples, five scans per array, were mutually RMA-summarized to transcription clusters gene levels. Log-base-2 fold changes were calculated for each scan separately relative to the mean Bleb-treated and non-treated CD34^+ and CD34^− intensities, gene by gene, and the average and standard deviation values (SD) were calculated across scans. Heat maps of selected genes summarize data from technical and biological replica. Average gene-expression fold changes±STD of HSC, MPP and CPP samples are shown in white. Log-base-2 fold changes of Bleb-treated and non-treated CD34^+ and CD34^− were averaged from two biologically independent experiments and are shown±SD. The particular fold-changes are color coded on a logarithmic scale that is defined per each heat map. Color-coded gene symbols represent the absolute gene expression levels of the biologically-replicated averages of CD34^+ non-treated intensities. Gene expression levels are coded <=5 (green) to >=10 (red) on a log-base-2 scale. Samples and genes were clustered by Pearson Correlation (MeV). Dendograms represent the correlative proximity of log-base-2 gene expression fold changes. Mean gene expression levels were calculated by averaging across five array scans. Log-base-2 gene expression fold changes were calculated relative to the mean Bleb-treated and non-treated CD34^+ and CD34^− intensities, gene by gene.

[2] = test system: BM CD34+-derived cells; assay: Live cell imaging of cell division
Method: At least 20,000 BM CD34^+-derived cells were put into Ibidi μ-slide VI (Ibidi GmbH) in cell culture medium. Analysis was done in an insulated chamber maintained at 37° C., 5% CO2. A series of images were collected every 5 min for 18 to ˜24 h with an Olympus IX70 inverted microscope with 300 W Xenon lamp illumination using 10× or 20× objectives under bright field. Image stacks were further analyzed by ImageJ to analyze cell division with or without blebbistatin treatment.

[3] = test system: CD34+-derived cells; assay: Apoptosis by cleaved caspase-3 intracellular flow cytometry and Annexin-V; conditions: cleaved caspase-3 and Annexin-V+
Method: Cells were fixed with 4% paraformaldehyde in PBS for 10 min, washed with PBS and resuspended in 0.1% saponin in HBSS (staining medium). The samples were then stained with antibodies against cytoplasmic antigens, including NMM-IIA (Sigma), NMM-IIB, phospho-NMM-IIA and caspase-3 (all from Cell Signaling Technology) for 30 min at room temperature. In some cases, cells were concurrently stained with PE anti-CD34 or anti-human CD38 for subpopulation analysis. Cells were then washed and stained with anti-rabbit or mouse secondary antibodies conjugated with Alexa 647 (Invitrogen) for 30 min, followed by analysis on FACSCalibur.

[4] = test system: MKs; assay: Proplatelet extension quantification
Method: Three-dimensional collagen gels embedded with cells were prepared as previously published (Rhee et al., 2007, Proc Natl Acad Sci USA, 104:5425-5430). BM-derived cells were added to the collagen solution prepared by neutralizing 2.0 mg/mL collagen-I (BD Biosciences) with HSC expansion media adjusted to appropriate the pH, so that cells could be embedded to the polymerized matrices (1×10^5 cells/mL). Next, 200 μL of this collagen mixture was placed in a well of 24-well plate and incubated at 37° C. 5% CO2 overnight before being formaldehyde-fixed and processed for microscopic analysis. Washing steps were done gently using pipette to minimize disturbance of gels. After completion of staining, matrices were released from the plate by gentle shaking and transferred to glass slides in mounting medium with either a spatula or gentle pipetting.
Cells on coverslips were fixed with 4% paraformaldehyde, followed by permeabilization with 0.5% Triton X-100 in PBS for 15 min and blocking with 1% BSA in PBS for 30 min. Samples were then stained with primary antibodies (1:100 for all antibodies used) overnight at 4° C. After washing, staining with appropriate Alexa-conjugated secondary antibodies (1:400) was performed for 45 min at room temperature. Cells were washed three times with PBS and mounted in ProLong Gold antifade medium (Invitrogen). Samples were then analyzed by fluorescence microscopy. For quantitative analysis, pictures from each experiment were taken under a defined set of exposure times on the same day with 40× objectives. Intensity of labeled NMM-II proteins for each cell was analyzed by ImageJ by subtracting a background, defining a threshold of cell boundary, followed by calculation of mean intensity. At least 10 images from each experiment were analyzed from three independent experiments. For proplatelet quantification, the process length from each cell was measured by manual tracing with ImageJ. Only processes above detection limit (≥1 μm in length from cell body) were considered for statistical analysis.

[5] = test system: CD34+-derived cells (HSC, MPP, CPP); assay: HSC/P numbers on FN-coated gels of different elasticity; conditions: drug-treated cells
Method: 15-18 mm glass coverslips were treated in order with ethanol, RCA solution (1:1:3 for 15N NH4OH:30% H2O2:dH2O), methylene chloride and 0.1% allyltrichlorosilane solution. To control gel's stiffness, n,n′ methylene-bis-acrylamide and the acrylamide solution was mixed at the ratio of 0.07%:3% for soft gels (0.3 kPa), or the ratio of 0.3%:8% for stiff gels (34 kPa), final concentrations in PBS. ˜25 μl of the mixed solution was polymerized on a coverslip with 10% ammonium persulfate and n,n,n′,n′-tetramethylethylenediamine. During polymerization, gels were covered with another coverslip to obtain a uniform gel surface with the final thickness of ˜100 μm. Different concentrations of FN were then cross-linked with polymerized gels using sulfo-SANFAH (Pierce, Rockford, Ill.) by UV-crosslinking Thickness of gels and relative FN concentrations were verified by confocal microscopy. It is assumed that most FN from the solution was attached to gels (>70%). FN-coated gels were then treated with UV in PBS for at least 1 hr before use in cell culture.

In the case of `Cc1ccc2c(c1)C(=O)C1(O)CCN(c3ccccc3)C1=N2` (racemic) [blebbistatin, (±)-blebbistatin], the “NMM-IIA mRNA lower in drug-treated CD34+ cells” value [1] is reported as ~30%, the “reduction of cyclin D1 and D3 (CCND1 and 3) expression” value [1] is reported as 2 fold and the “SCF receptor (KIT) expression vs untreated CD34+ cells” value ([1]; treated CD34+ cells) is reported as 1.8 fold. For the same compound, the “upregulation of CD133 (PROM1) and CD34 above pooled average” value ([1]; treated CD34+ cells in culture) was “more than 2 fold”, the “cells showing reversal of cytokinesis” value [2] was ~80% and the increase in apoptosis [3] was “about 2 fold”. The “increase in mean length of proplatelet extensions” value ([4]; cells grown on plastic) was “approximately threefold”, the “effect on proplatelet extensions” value ([4]; cells in 3D collagen gels or on stiff, osteoid-like matrices) was “no effect” and the “average proplatelet extension velocity” value ([4]; live imaging) was ~1 μm/min. The “CPP number soft vs stiff, mean” value [5] was 0.9±0.1, the “MPP number soft vs stiff, mean” value [5] was 1.0±0.1 and the “increase of HSC-to-MPP ratio with increasing FN density” value [5] was > 2 fold. For the same compound, the “ratio of HSC numbers soft vs stiff, mean” value [5] was 1.1±0.2.
